Patent US10238670B2, “9-aminomethyl minocycline compounds and methods of use thereof in urinary tract infection (UTI) treatment” (Paratek Pharmaceuticals, Inc., priority 2016, dated 2019)
In brackets after ≈: the same amount, converted by molar mass. Where two headings read alike, the source gives them in different places.

Key:
Experiment in all cases: In vitro MIC, 2010 surveillance isolates
MRSA = type: cell-based
K. oxytoca = type: cell-based
E. cloacae CeftazS = type: cell-based
E. cloacae CeftazR = type: cell-based
E. faecalis VNS = type: cell-based
K. pneumoniae ESBL+ = type: cell-based, Klebsiella pneumoniae
Enterobacter spp = type: cell-based
E. faecium VNS = type: cell-based
E. coli ESBL− = type: cell-based, Escherichia coli
MS CoNS = type: cell-based, Coagulase-Negative Staphylococcus
K. pneumoniae ESBL− = type: cell-based, Klebsiella pneumoniae
E. coli ESBL+ = type: cell-based, Escherichia coli
E. faecalis VS = type: cell-based
MR CoNS = type: cell-based, Coagulase-Negative Staphylococcus
A. baumanii = type: cell-based
Acinetobacter spp = type: cell-based; details: for % R (resistance): CLSI breakpoints
E. faecium VS = type: cell-based
MSSA = type: cell-based

- MIC90 (MRSA; Asia/Pac, N=428): > 8 µg/mL
- MIC90 (MRSA; Europe, N=750): > 8 µg/mL
- MIC90 (MRSA; L. Amer, N=506): > 8 µg/mL
- MIC90 (MRSA; N America, N=2508): > 8 µg/mL
- MIC90 (K. oxytoca; Asia/Pac, N=17): > 8 µg/mL
- MIC90 (K. oxytoca; Europe, N=158): > 8 µg/mL
- MIC90 (K. oxytoca; L. Amer, N=25): > 8 µg/mL
- MIC90 (K. oxytoca; N America, N=177): 4 µg/mL (≈ 7.21 µM)
- MIC90 (E. cloacae CeftazS; Asia/Pac, N=100): 2 µg/mL (≈ 3.61 µM)
- MIC90 (E. cloacae CeftazS; Europe, N=183): 2 µg/mL (≈ 3.61 µM)
- MIC90 (E. cloacae CeftazS; L. Amer, N=57): > 8 µg/mL
- MIC90 (E. cloacae CeftazS; N America, N=210): 1 µg/mL (≈ 1.8 µM)
- MIC90 (E. cloacae CeftazR; Asia/Pac, N=63): > 8 µg/mL
- MIC90 (E. cloacae CeftazR; Europe, N=72): > 8 µg/mL
- MIC90 (E. cloacae CeftazR; L. Amer, N=42): > 8 µg/mL
- MIC90 (E. cloacae CeftazR; N America, N=77): > 8 µg/mL
- range of MICs (N <10, shown instead of MIC90) (E. faecalis VNS; Asia/Pac, N=1): >8
- range of MICs (N <10, shown instead of MIC90) (E. faecalis VNS; Europe, N=8): >8
- range of MICs (N <10, shown instead of MIC90) (E. faecalis VNS; L. Amer, N=7): >8
- MIC90 (E. faecalis VNS; N America, N=38): > 8 µg/mL
- MIC90 (K. pneumoniae ESBL+; Asia/Pac, N=124): > 8 µg/mL
- MIC90 (K. pneumoniae ESBL+; Europe, N=151): > 8 µg/mL
- MIC90 (K. pneumoniae ESBL+; L. Amer, N=209): > 8 µg/mL
- MIC90 (K. pneumoniae ESBL+; N America, N=108): > 8 µg/mL
- MIC90 (Enterobacter spp; Asia/Pac, N=52): > 8 µg/mL
- MIC90 (Enterobacter spp; Europe, N=82): > 8 µg/mL
- MIC90 (Enterobacter spp; L. Amer, N=42): > 8 µg/mL
- MIC90 (Enterobacter spp; N America, N=101): > 8 µg/mL
- MIC90 (E. faecium VNS; Asia/Pac, N=24): > 8 µg/mL
- MIC90 (E. faecium VNS; Europe, N=71): > 8 µg/mL
- MIC90 (E. faecium VNS; L. Amer, N=41): > 8 µg/mL
- MIC90 (E. faecium VNS; N America, N=478): > 8 µg/mL
- MIC90 (E. coli ESBL−; Asia/Pac, N=282): 0.12 µg/mL (≈ 0.216 µM)
- MIC90 (E. coli ESBL−; Europe, N=1533): 0.12 µg/mL (≈ 0.216 µM)
- MIC90 (E. coli ESBL−; L. Amer, N=389): 0.12 µg/mL (≈ 0.216 µM)
- MIC90 (E. coli ESBL−; N America, N=1172): 0.12 µg/mL (≈ 0.216 µM)
- MIC90 (MS CoNS; Asia/Pac, N=18): 8 µg/mL (≈ 14.4 µM)
- MIC90 (MS CoNS; Europe, N=185): 4 µg/mL (≈ 7.21 µM)
- MIC90 (MS CoNS; L. Amer, N=67): 4 µg/mL (≈ 7.21 µM)
- MIC90 (MS CoNS; N America, N=191): 4 µg/mL (≈ 7.21 µM)
- MIC90 (K. pneumoniae ESBL−; Asia/Pac, N=189): 0.12 µg/mL (≈ 0.216 µM)
- MIC90 (K. pneumoniae ESBL−; Europe, N=361): 0.12 µg/mL (≈ 0.216 µM)
- MIC90 (K. pneumoniae ESBL−; L. Amer, N=160): 0.12 µg/mL (≈ 0.216 µM)
- MIC90 (K. pneumoniae ESBL−; N America, N=671): 0.12 µg/mL (≈ 0.216 µM)
- MIC90 (E. coli ESBL+; Asia/Pac, N=219): > 8 µg/mL
- MIC90 (E. coli ESBL+; Escherichia coli, ESBL-producing E. coli, read-out: MIC90): > 8 µg/mL
- MIC90 (E. coli ESBL+; Europe, N=274): > 8 µg/mL
- MIC90 (E. coli ESBL+; L. Amer, N=168): > 8 µg/mL
- MIC90 (E. coli ESBL+; N America, N=134): > 8 µg/mL
- MIC90 (E. faecalis VS; Asia/Pac, N=214): > 8 µg/mL
- MIC90 (E. faecalis VS; Europe, N=669): > 8 µg/mL
- MIC90 (E. faecalis VS; L. Amer, N=290): > 8 µg/mL
- MIC90 (E. faecalis VS; N America, N=863): > 8 µg/mL
- MIC90 (MR CoNS; Asia/Pac, N=77): > 8 µg/mL
- MIC90 (MR CoNS; Europe, N=510): > 8 µg/mL
- MIC90 (MR CoNS; L. Amer, N=301): > 8 µg/mL
- MIC90 (MR CoNS; N America, N=461): > 8 µg/mL
- MIC90 (A. baumanii; Asia/Pac, N=275): > 8 µg/mL
- MIC90 (A. baumanii; Europe, N=145): > 8 µg/mL
- MIC90 (A. baumanii; L. Amer, N=275): > 8 µg/mL
- MIC90 (A. baumanii; N America, N=154): > 8 µg/mL
- MIC90 (Acinetobacter spp; Europe, N=43): > 8 µg/mL
- MIC90 (Acinetobacter spp; N America, N=42): > 8 µg/mL
- MIC90 (E. faecium VS; Asia/Pac, N=106): > 8 µg/mL
- MIC90 (E. faecium VS; Europe, N=303): > 8 µg/mL
- MIC90 (E. faecium VS; L. Amer, N=51): > 8 µg/mL
- MIC90 (E. faecium VS; N America, N=115): > 8 µg/mL
- MIC90 (MSSA; Asia/Pac, N=641): 4 µg/mL (≈ 7.21 µM)
- MIC90 (MSSA; Europe, N=2109): 4 µg/mL (≈ 7.21 µM)
- MIC90 (MSSA; L. Amer, N=590): 4 µg/mL (≈ 7.21 µM)
- MIC90 (MSSA; N America, N=2373): 4 µg/mL (≈ 7.21 µM)
SMILES: CO/N=C(\C(=O)N[C@@H]1C(=O)N2C(C(=O)O)=C(CSc3nc(=O)c(=O)[nH]n3C)CS[C@H]12)c1csc(N)n1 [Ceftriaxone]
- % R (resistance) (MRSA; Asia/Pac, Eucast breakpoints): 100%
- % R (resistance) (MRSA; Europe, Eucast breakpoints): 100%
- % R (resistance) (MRSA; L. Amer, CLSI breakpoints): 100%
- % R (resistance) (MRSA; N America, CLSI breakpoints): 100%
- % R (resistance) (K. oxytoca; Asia/Pac, Eucast breakpoints): 29.4%
- % R (resistance) (K. oxytoca; Europe, Eucast breakpoints): 17.7%
- % R (resistance) (K. oxytoca; L. Amer, CLSI breakpoints): 40%
- % R (resistance) (K. oxytoca; N America, CLSI breakpoints): 10.2%
- % R (resistance) (E. cloacae CeftazS; Asia/Pac, Eucast breakpoints): 5%
- % R (resistance) (E. cloacae CeftazS; Europe, Eucast breakpoints): 7.7%
- % R (resistance) (E. cloacae CeftazS; L. Amer, CLSI breakpoints): 24.6%
- % R (resistance) (E. cloacae CeftazS; N America, CLSI breakpoints): 3.3%
- % R (resistance) (E. cloacae CeftazR; Asia/Pac, Eucast breakpoints): 100%
- % R (resistance) (E. cloacae CeftazR; Europe, Eucast breakpoints): 100%
- % R (resistance) (E. cloacae CeftazR; L. Amer, CLSI breakpoints): 100%
- % R (resistance) (E. cloacae CeftazR; N America, CLSI breakpoints): 100%
- % R (resistance) (K. pneumoniae ESBL+; Asia/Pac, Eucast breakpoints): 93.5%
- % R (resistance) (K. pneumoniae ESBL+; Europe, Eucast breakpoints): 94.7%
- % R (resistance) (K. pneumoniae ESBL+; L. Amer, CLSI breakpoints): 99.5%
- % R (resistance) (K. pneumoniae ESBL+; N America, CLSI breakpoints): 95.4%
- % R (resistance) (Enterobacter spp; Asia/Pac, Eucast breakpoints): 30.8%
- % R (resistance) (Enterobacter spp; Europe, Eucast breakpoints): 39%
- % R (resistance) (Enterobacter spp; L. Amer, CLSI breakpoints): 31%
- % R (resistance) (Enterobacter spp; N America, CLSI breakpoints): 24.8%
- % R (resistance) (E. coli ESBL−; Asia/Pac, Eucast breakpoints): 0%
- % R (resistance) (E. coli ESBL−; Europe, Eucast breakpoints): 0%
- % R (resistance) (E. coli ESBL−; L. Amer, CLSI breakpoints): 0%
- % R (resistance) (E. coli ESBL−; N America, CLSI breakpoints): 0%
- % R (resistance) (MS CoNS; Asia/Pac, Eucast breakpoints): 0%
- % R (resistance) (MS CoNS; Europe, Eucast breakpoints): 0%
- % R (resistance) (MS CoNS; L. Amer, CLSI breakpoints): 0%
- % R (resistance) (MS CoNS; N America, CLSI breakpoints): 0%
- % R (resistance) (K. pneumoniae ESBL−; Asia/Pac, Eucast breakpoints): 0%
- % R (resistance) (K. pneumoniae ESBL−; Europe, Eucast breakpoints): 0%
- % R (resistance) (K. pneumoniae ESBL−; L. Amer, CLSI breakpoints): 0%
- % R (resistance) (K. pneumoniae ESBL−; N America, CLSI breakpoints): 0%
- % R (resistance) (E. coli ESBL+; Asia/Pac, Eucast breakpoints): 99.5%
- resistance rates for ESBL-producing clinical isolates (E. coli ESBL+; E. coli): 95%
- % R (resistance) (E. coli ESBL+; Europe, Eucast breakpoints): 94.2%
- % R (resistance) (E. coli ESBL+; L. Amer, CLSI breakpoints): 97.6%
- % R (resistance) (E. coli ESBL+; N America, CLSI breakpoints): 85.8%
- % R (resistance) (MR CoNS; Asia/Pac, Eucast breakpoints): 100%
- % R (resistance) (MR CoNS; Europe, Eucast breakpoints): 100%
- % R (resistance) (MR CoNS; L. Amer, CLSI breakpoints): 100%
- % R (resistance) (MR CoNS; N America, CLSI breakpoints): 100%
- % R (resistance) (Acinetobacter spp; L. Amer): 0%
- % R (resistance) (Acinetobacter spp; N America): 0%
- % R (resistance) (MSSA; Asia/Pac, Eucast breakpoints): 0%
- % R (resistance) (MSSA; Europe, Eucast breakpoints): 0%
- % R (resistance) (MSSA; L. Amer, CLSI breakpoints): 0%
- % R (resistance) (MSSA; N America, CLSI breakpoints): 0.1%
